# Assay results taken from patent US11307205B2, “Non-radioactive cytotoxicity assays” (University of Southern California, priority 2016, dated 2022).
# Experiments:
# Assay type in all cases: cell-based
# HEL-92-1-17 cells = test: Matador assay, Digitonin-induced death of HEL cells expressing a luciferase reporter; settings: Digitonin 30 μg/ml, 1 hour
# Method: A 100× stock solution of native coelenterazine (CTZ; Nanolight, cat #303) was made by dissolving 1 mg of lyophilized CTZ powder in 1.1 ml of 100% Methanol supplemented with 30 μl of 6N HCl to avoid oxidation of CTZ with time. To make CTZ assay buffer, the 100× stock solution of CTZ was diluted to 0.5× concentration in PBS. Unless indicated otherwise, a total volume of 15 μl of the CTZ assay buffer (as prepared above) was added using an auto-injector to each well of a 384-well white plate (Greiner, 384 well white plate cat #781075) containing cells expressing the non-secretory form of a copepod luciferase in approximately 50-60 μl volume of medium and plates were read for luminescence in well-mode using BioTek synergyH4 plate reader. In the well-mode, an auto-injector or dispenser is used and assay buffer is added in one well, luminescence is read in that well, then the assay buffer is added to next well and luminescence is read in that well. Where indicated, assay was also conducted in the endpoint mode. In the endpoint mode, an autoinjector or dispenser is not used, the assay buffer is added in all wells manually using a pipette and then luminescence is read in all wells of the plate. For 96 well plates, cells were plated in 200 μl of media and approximately 50 μl of 0.5×CTZ assay buffer was added. […]
# RAJI cells = test: Matador assay, Digitonin-induced death of RAJI cells expressing luciferase reporters
# Method: A similar experiment was conducted with K562, HEL-91-1-17 and RAJI cells stably expressing NLuc from pLENTI-NLuc-AcV5-Blasticidin-Pa08 vector (SEQ ID NO: 92). Cells plated in 30 μl of medium per well were either treated with 30 μl of PBS or 30 μl of PBS containing Digitonin (final concentration 30 μg/ml) for 1 hour at 37° C., in a 5% CO2 incubator. For measurement of NLuc activity, 0.5×CTZ assay buffer was added by automated injector directly to each well of the 384-well white plate containing cells in 60 μl of volume (30 μl of RPMI-10% FBS+30 μl of Digitonin) without prior cell lysis and plates were read for luminescence using BioTek synergy H4 plate reader in well mode.
# Briefly, 20000 cells in 20 μl media were plated in each well of a 384 well plate followed by addition of 20 μl of Digitonin (final concentration 30 μg/ml) or media alone (20 μl) and incubated for 90 minutes.
# K562 cells = test: Matador assay, death of K562 reporter cells induced by Digitonin or lytic reagent
smiles,measurement,setting,value
C[C@@H]1CC[C@@]2(OC1)O[C@H]1[C@@H](O)[C@H]3[C@@H]4CC[C@H]5C[C@@H](O[C@@H]6O[C@H](CO)[C@H](O[C@@H]7O[C@H](CO)[C@@H](O)[C@H](O[C@@H]8OC[C@@H](O)[C@H](O)[C@H]8O)[C@H]7O[C@@H]7O[C@H](CO)[C@H](O)[C@H](O[C@@H]8O[C@H](CO)[C@@H](O)[C@H](O)[C@H]8O)[C@H]7O)[C@H](O)[C@H]6O)[C@H](O)C[C@]5(C)[C@H]4CC[C@]3(C)[C@H]1[C@@H]2C [Digitonin],GLuc luciferase activity,"HEL-92-1-17 cells; HEL-92-1-17 cells stably expressing GLuc, evident even in wells containing a single cell",increase in GLuc luciferase activity
same,NLuc activity,HEL-92-1-17 cells; HEL-92-1-17 cells stably expressing NLuc,increase in NLuc activity
same,TLuc activity,"RAJI cells; RAJI cells expressing TurboLuc16, Digitonin 90 min",increase in TLuc activity
same,GLuc luciferase activity,"RAJI cells; RAJI cells stably expressing GLuc from MSCVhygro-GLuc-HA-G02, Digitonin",Essentially similar results
same,NLuc activity,"RAJI cells; RAJI cells stably expressing NLuc, Digitonin 30 μg/ml, 1 hour",increase in NLuc activity
same,FfLuc and GLuc activities,"RAJI cells; Raji cells expressing both GLuc and FfLuc, Digitonin 30 μg/ml, 90 minutes",increase in both FfLuc and GLuc activities
same,MLuc7 activity,"K562 cells; K562-MLuc7 (additional example), Digitonin 30 μg/ml, 1 cell/well to 10K cells/well",increase in MLuc7 activity
same,MLuc7 activity,"K562 cells; K562-MLuc7, Digitonin 1 hour, 1 cell/well to 400K cells/well",increase in MLuc7 activity
same,NLuc luminescence in the supernatant,"K562 cells; K562-NLuc, Digitonin 1 h, all three assay buffers",increase in luminescence
same,TLuc activity,"K562 cells; K562 cells expressing TurboLuc16, Digitonin 90 min",increase in TLuc activity
same,FfLuc and GLuc activities,"K562 cells; K562 cells expressing both GLuc and FfLuc, Digitonin 30 μg/ml, 90 minutes",increase in both FfLuc and GLuc activities
same,LucPPe-146-1H2 activity,"K562 cells; K562 cells stably expressing LucPPe-146-1H2, Digitonin 30 μg/ml",increase in LucPPe-146-1H2 activity
same,NLuc activity,"K562 cells; K562 cells stably expressing NLuc, Digitonin 30 μg/ml, 1 hour",increase in NLuc activity
same,Renilla Luc activity,"K562 cells; K562 cells stably expressing Renilla Luc, Digitonin 2 hours",increase in Renilla Luc activity
same,"Luc49-7C6A, Luc78-0B10, Luc133-IB2 and LucPpL-81-6G1 activities","K562 cells; K562 cells stably expressing these luciferases, Digitonin 30 μg/ml, example in present tense","increase in Luc49-7C6A, Luc78-0B10, Luc133-IB2 and LucPpL-81-6G1 activities"
same,LucPPe-146-1H2 and NLuc luminescence,"K562 cells; K562 co-expressing both luciferases, Digitonin 30 μg/ml, 90 minutes, Dual-Luciferase Reporter Assay System",increase in both LucPPe-146-1H2 and NLuc luminescence
same,LucPPe-146-1H2 and NLuc activities,"K562 cells; K562 co-expressing both luciferases, Digitonin, measured in different wells with D-luciferin and CTZ assay buffers",increase in both LucPPe-146-1H2 and NLuc activities
